pIC50: −log10 of the molar value.
How the values were obtained:
Assay type in all cases: cell-based
ATM = biological target: T1, ATM (Homo sapiens, UniProt Q13315); test: ATM cellular potency assay (pATM Ser1981 in irradiated HT29 cells); conditions: X-ray irradiation, pATM (Ser1981); read-out: Assay a) ATM Cell IC50
T1 construct: endogenous in cells; host or cells: HT29 cells (ECACC #85061109)
Excerpt: Cellular irradiation induces DNA double strand breaks and rapid intermolecular autophosphorylation of serine 1981 that causes dimer dissociation and initiates cellular ATM kinase activity. Most ATM molecules in the cell are rapidly phosphorylated on this site after doses of radiation as low as 0.5 Gy, and binding of a phosphospecific antibody is detectable after the introduction of only a few DNA double-strand breaks in the cell.
The rationale of the pATM assay is to identify inhibitors of ATM in cells. HT29 cells are incubated with test compounds for lhr prior to X-ray-irradiation. 1 h later the cells are fixed and stained for pATM (Ser1981). The fluorescence is read on the arrayscan imaging platform.
HT29 cells (ECACC #85061109) were seeded into 384 well assay plates (Costar #3712) at a density of 3500 cells/well in 40 μl EMEM medium containing 1% L glutamine and 10% FBS and allowed to adhere overnight. […]
Phospho-ATM Ser1981 antibody (Millipore #MAB3806) was diluted 10000 fold in PBS containing 0.05% polysorbate/Tween and 3% BSA and 20 μl was added to each well and incubated over night at r.t. […] After 1 h incubation at r.t., the plates were washed three times with 50 μl/well PBS, using a Biotek EL405 plate washer, and plates were sealed and kept in PBS at 4° C. until read. Plates were read using an ArrayScan VTI instrument, using an XF53 filter with 10× objective. […]

ATR = biological target: T2, ATR (Homo sapiens, UniProt Q13535); test: ATR cellular potency assay (pChk1 Ser345 in HT29 cells with 4NQO); conditions: pChk1 (Ser 345); read-out: Assay b) ATR Cell IC50
T2 construct: endogenous in cells; host or cells: HT29 cells (ECACC #85061109)
Excerpt: ATR is a PI 3-kinase-related kinase which phosphorylates multiple substrates on serine or threonine residues in response to DNA damage during or replication blocks. Chk1, a downstream protein kinase of ATR, plays a key role in DNA damage checkpoint control. Activation of Chk1 involves phosphorylation of Ser317 and Ser345 (the latter regarded as the preferential target for phosphorylation/activation by ATR). This was a cell based assay to measure inhibition of ATR kinase, by measuring a decrease in phosphorylation of Chk1 (Ser 345) in HT29 cells, following treatment with compound of Formula (I) and the UV mimetic 4NQO (Sigma #N8141).
HT29 cells (ECACC #85061109) were seeded into 384 well assay plates (Costar #3712) at a density of 6000 cells/well in 40 μl EMEM medium containing 1% L glutamine and 10% FBS and allowed to adhere overnight. […]
Phospho-Chk1 Ser 345 antibody (Cell Signalling Technology #2348) was diluted 150 fold in PBS containing 0.05% polysorbate/Tween and 15 μl was added to each well and incubated over night at r.t. […] After 2 h incubation at r.t., the plates were washed three times with 50 μl/well PBS, using a Biotek EL405 plate washer, and plates were then sealed with black plate seals until read. Plates were read using an ArrayScan VTI instrument, using an XF53 filter with 10× objective. […]

PI3Kα = PI3Kα (Homo sapiens, UniProt P42336); test: PI3K cellular potency assay (phospho-Akt T308 ELISA in BT474 cells); conditions: 2 h, phospho-Akt (T308); read-out: Assay c) PI3Kα Cell IC50
Excerpt: This assay was used to measure PI3K-a inhibition in cells. PDK1 was identified as the upstream activation loop kinase of protein kinase B (Akt1), which is essential for the activation of PKB. Activation of the lipid kinase phosphoinositide 3 kinase (PI3K) is critical for the activation of PKB by PDK1.
Following ligand stimulation of receptor tyrosine kinases, PI3K is activated, which converts PIP2 to PIP3, which is bound by the PH domain of PDK1 resulting in recruitment of PDK1 to the plasma membrane where it phosphorylates AKT at Thr308 in the activation loop.
The aim of this cell-based mode of action assay is to identify compounds that inhibit PDK activity or recruitment of PDK1 to membrane by inhibiting PI3K activity. Phosphorylation of phospho-Akt (T308) in BT474c cells following treatment with compounds for 2 h is a direct measure of PDK1 and indirect measure of PI3K activity. […]
After 20 minutes, the cell lysates were transferred into ELISA plates (Greiner #781077) which had been pre-coated with an anti total-AKT antibody in PBS buffer and non-specific binding was blocked with 1% BSA in PBS containing 0.05% Tween 20. […] Plates were read using a Tecan Safire plate reader using 325 nm excitation and 420 nm emission wavelengths respectively. […]

mTOR = biological target: T3, mTOR (Homo sapiens, UniProt P42345); test: mTOR cellular potency assay (phospho-AKT Ser473 in MDA-MB-468 cells); conditions: 2 hours, phospho-AKT (Ser473), protocol A or B; read-out: Assay d) mTOR Cell IC50
T3 construct: endogenous in cells; host or cells: MDA-MB-468 cells
Protocol: The phospho-AKTser473 cell assay was performed in the MDA-MB-468 cell line, a PTEN null breast adenocarcinoma human cell line. As a consequence of the lack of PTEN, pAKT is constitutively activated which eliminates the requirement for stimulation to induce phosphorylation.
MDA-MB-468 cells were cultured in cell media composed of DMEM (Dulbecco's modified Eagle's medium #D6546)), 10% (v/v) Foetal Calf Serum and 1% (v/v) L-Glutamine. After harvesting, cells were dispensed into black, 384-well Costar plates (#3712, Corning) to give 1500 cells per well in a total volume of 40 μl cell media, and were incubated overnight at 37° C., 90% relative humidity and 5% CO2 in a rotating incubator. […]
Stained cell plates were covered with black seals, and then read on the Acumen (TTP Labtech) plate reader. The primary channel (green fluorescence, 488 nm) is used to set the intensity settings for the max/min cut off to allow for weekly variation in staining and the ‘AKT+: No of objects (No)’ data is used for the analysis. Data was analysed and IC50s were calculated using Genedata Screener® software. […]
Stained cell plates were covered with black seals, and then read on the Cell Insight imaging platform (Thermo Scientific), with a 10× objective. […] The secondary channel (Green […], BGRFR_485_20) measures pAKT staining Data was analysed and IC5os were calculated using Genedata Screener® software.

T2 sequence (Q13535 whole entry): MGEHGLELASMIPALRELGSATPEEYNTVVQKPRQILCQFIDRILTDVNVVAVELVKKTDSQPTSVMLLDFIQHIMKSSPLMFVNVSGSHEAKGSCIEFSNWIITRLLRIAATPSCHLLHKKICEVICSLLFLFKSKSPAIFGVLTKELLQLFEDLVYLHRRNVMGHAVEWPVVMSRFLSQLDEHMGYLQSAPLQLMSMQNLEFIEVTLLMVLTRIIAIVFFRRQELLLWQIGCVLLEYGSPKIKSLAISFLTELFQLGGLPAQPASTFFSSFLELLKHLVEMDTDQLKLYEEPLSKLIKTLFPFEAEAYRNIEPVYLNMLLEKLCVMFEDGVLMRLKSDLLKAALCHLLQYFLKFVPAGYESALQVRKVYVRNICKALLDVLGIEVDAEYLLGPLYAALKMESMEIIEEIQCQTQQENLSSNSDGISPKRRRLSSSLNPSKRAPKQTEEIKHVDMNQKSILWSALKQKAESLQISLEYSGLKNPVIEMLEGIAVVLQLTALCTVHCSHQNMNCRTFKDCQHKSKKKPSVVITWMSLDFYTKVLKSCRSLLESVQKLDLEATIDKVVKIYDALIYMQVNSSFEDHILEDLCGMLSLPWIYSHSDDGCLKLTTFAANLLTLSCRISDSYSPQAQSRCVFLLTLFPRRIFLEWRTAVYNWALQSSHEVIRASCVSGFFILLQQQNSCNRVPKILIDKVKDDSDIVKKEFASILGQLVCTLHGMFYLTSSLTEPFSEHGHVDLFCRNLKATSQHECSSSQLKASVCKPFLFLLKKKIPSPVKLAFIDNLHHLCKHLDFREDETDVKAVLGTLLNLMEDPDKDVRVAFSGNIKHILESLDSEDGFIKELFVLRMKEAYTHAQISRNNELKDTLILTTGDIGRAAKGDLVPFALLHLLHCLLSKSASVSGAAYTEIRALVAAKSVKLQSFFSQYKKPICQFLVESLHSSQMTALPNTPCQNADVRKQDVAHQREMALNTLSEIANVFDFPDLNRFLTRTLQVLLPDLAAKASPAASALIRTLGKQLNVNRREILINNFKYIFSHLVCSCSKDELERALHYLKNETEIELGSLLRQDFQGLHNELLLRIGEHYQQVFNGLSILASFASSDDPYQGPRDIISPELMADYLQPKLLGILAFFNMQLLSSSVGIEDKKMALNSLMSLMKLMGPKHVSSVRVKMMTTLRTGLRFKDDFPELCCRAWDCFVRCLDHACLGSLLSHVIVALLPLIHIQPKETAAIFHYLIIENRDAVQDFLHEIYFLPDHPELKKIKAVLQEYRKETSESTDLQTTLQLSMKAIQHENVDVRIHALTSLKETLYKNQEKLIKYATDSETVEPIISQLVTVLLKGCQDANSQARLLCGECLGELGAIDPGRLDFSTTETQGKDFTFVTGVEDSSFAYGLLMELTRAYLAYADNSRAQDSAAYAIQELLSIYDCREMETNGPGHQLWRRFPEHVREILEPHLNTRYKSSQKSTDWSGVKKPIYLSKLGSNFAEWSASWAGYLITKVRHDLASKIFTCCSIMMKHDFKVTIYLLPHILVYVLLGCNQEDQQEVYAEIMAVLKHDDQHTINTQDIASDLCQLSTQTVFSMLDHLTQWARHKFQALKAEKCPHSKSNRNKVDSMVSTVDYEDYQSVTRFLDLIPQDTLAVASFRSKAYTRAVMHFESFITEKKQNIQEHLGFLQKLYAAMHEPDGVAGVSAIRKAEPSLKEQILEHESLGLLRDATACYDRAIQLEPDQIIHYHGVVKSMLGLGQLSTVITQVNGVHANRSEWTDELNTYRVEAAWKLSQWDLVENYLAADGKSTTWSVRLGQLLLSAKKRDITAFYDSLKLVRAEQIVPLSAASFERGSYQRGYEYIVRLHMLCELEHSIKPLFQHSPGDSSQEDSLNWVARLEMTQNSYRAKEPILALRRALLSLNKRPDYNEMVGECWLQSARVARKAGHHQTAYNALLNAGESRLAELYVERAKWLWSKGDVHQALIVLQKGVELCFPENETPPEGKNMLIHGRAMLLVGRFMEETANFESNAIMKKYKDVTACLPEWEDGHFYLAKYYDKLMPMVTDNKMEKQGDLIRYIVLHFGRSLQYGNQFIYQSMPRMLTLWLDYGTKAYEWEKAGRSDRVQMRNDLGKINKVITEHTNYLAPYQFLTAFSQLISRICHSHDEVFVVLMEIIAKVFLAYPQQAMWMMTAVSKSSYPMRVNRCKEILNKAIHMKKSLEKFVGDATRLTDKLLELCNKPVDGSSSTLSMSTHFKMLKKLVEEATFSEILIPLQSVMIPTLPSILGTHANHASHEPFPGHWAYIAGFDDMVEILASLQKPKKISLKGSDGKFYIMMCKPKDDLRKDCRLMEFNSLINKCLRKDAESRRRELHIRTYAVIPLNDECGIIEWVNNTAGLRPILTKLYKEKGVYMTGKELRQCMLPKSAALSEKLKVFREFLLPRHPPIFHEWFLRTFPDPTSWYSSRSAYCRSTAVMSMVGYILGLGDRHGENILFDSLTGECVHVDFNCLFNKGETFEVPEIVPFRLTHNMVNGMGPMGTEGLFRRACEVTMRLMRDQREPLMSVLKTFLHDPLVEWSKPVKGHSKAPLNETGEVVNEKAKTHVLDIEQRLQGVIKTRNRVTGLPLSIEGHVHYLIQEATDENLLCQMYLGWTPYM
T2 sequence (Q8WXE1 whole entry partner): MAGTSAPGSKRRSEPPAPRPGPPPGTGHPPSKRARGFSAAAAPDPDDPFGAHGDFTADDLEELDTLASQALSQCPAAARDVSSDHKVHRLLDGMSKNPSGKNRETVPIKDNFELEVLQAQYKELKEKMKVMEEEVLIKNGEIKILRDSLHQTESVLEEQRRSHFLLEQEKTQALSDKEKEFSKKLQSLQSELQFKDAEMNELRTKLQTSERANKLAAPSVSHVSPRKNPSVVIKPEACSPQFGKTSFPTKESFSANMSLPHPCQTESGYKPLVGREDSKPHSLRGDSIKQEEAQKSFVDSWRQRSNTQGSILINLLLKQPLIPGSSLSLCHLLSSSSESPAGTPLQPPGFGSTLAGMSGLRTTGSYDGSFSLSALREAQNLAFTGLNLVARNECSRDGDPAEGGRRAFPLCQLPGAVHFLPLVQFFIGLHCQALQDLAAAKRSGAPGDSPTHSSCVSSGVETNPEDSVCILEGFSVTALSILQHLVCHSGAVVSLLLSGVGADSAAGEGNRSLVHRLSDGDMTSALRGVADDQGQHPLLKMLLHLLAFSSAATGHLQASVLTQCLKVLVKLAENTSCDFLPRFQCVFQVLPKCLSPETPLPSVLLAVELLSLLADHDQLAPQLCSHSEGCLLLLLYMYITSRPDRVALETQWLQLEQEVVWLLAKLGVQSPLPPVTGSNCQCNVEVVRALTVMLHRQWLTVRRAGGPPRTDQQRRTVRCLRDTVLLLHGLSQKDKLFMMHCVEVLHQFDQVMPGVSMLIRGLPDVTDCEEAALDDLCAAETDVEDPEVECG

Compound: Cn1c(=O)n(C2CCOCC2)c2c3cc(-c4ccc(OCCC[N+](C)(C)[O-])nc4)ccc3ncc21 [Example 1]
- pIC50 (ATM): 8.27
- pIC50 (ATR): 4.99
- pIC50 (PI3Kα): 4.75
- pIC50 (mTOR): < 5.90

— patent US20190119270A1, “N-Oxide Compound and Its Use in Treating Cancer” (AstraZeneca AB, priority 2016, published 2019)
